Experimental data from ChEMBL document CHEMBL4152353, “Synthesis of DNA interactive C3-trans-cinnamide linked β-carboline conjugates as potential cytotoxic and DNA topoisomerase I inhibitors” (Bioorg Med Chem, 2018).
Calls of active or inactive are those of the source. The rule behind the calls is not given here.

Key:
Calf thymus DNA [1] = assay: Binding affinity to calf thymus DNA assessed as increase in viscosity at 15 uM by viscometric method; assay type: nucleic-acid assay; conditions: Bos taurus
A549 = assay: Cytotoxicity against human A549 cells after 48 hrs by MTT assay; assay type: functional, cell-based; conditions: A549, 48 h
MCF7 [2] = assay: Cytotoxicity against human MCF7 cells after 48 hrs by MTT assay; assay type: functional, cell-based; conditions: MCF7, 48 h
B16 = assay: Cytotoxicity against mouse B16 cells after 48 hrs by MTT assay; assay type: functional, cell-based; conditions: B16, 48 h
HeLa = assay: Cytotoxicity against human HeLa cells after 48 hrs by MTT assay; assay type: functional, cell-based
NIH3T3 [3] = assay: Cytotoxicity against mouse NIH/3T3 cells after 48 hrs by MTT assay; assay type: cell-based; conditions: NIH3T3, 48 h
Calf thymus DNA [4] = assay: Binding affinity to calf thymus DNA assessed as hypochromic shift at 50 uM by UV-Vis absorption spectrophotometric method; assay type: nucleic-acid assay; conditions: Bos taurus
MCF7 [5] = assay: Cytotoxicity against human MCF7 cells assessed as cell death at 1 uM after 24 hrs by propidium iodide/Hoechst 33342 staining based fluorescence microscopic analysis; assay type: functional
MCF7 [6] = assay: Cell cycle arrest in human MCF7 cells assessed as accumulation at subG1 phase at 0.5 uM after 48 hrs by propidium iodide staining based flow cytometry (reference value: 3.04%); assay type: functional
MCF7 [7] = assay: Cell cycle arrest in human MCF7 cells assessed as accumulation at subG1 phase at 1 uM after 48 hrs by propidium iodide staining based flow cytometry (reference value: 3.04%); assay type: functional
MCF7 [8] = assay: Cell cycle arrest in human MCF7 cells assessed as accumulation at G1 phase at 0.5 uM after 48 hrs by propidium iodide staining based flow cytometry (reference value: 45.98%); assay type: functional
MCF7 [9] = assay: Cell cycle arrest in human MCF7 cells assessed as accumulation at G1 phase at 1 uM after 48 hrs by propidium iodide staining based flow cytometry (reference value: 45.98%); assay type: functional
MCF7 [10] = assay: Cell cycle arrest in human MCF7 cells assessed as accumulation at S-phase at 0.5 uM after 48 hrs by propidium iodide staining based flow cytometry (reference value: 15.64%); assay type: functional
MCF7 [11] = assay: Cell cycle arrest in human MCF7 cells assessed as accumulation at S-phase at 1 uM after 48 hrs by propidium iodide staining based flow cytometry (reference value: 15.64%); assay type: functional
MCF7 [12] = assay: Cell cycle arrest in human MCF7 cells assessed as accumulation at G2/M-phase at 0.5 uM after 48 hrs by propidium iodide staining based flow cytometry (reference value: 33.65%); assay type: functional
MCF7 [13] = assay: Cell cycle arrest in human MCF7 cells assessed as accumulation at G2/M-phase at 1 uM after 48 hrs by propidium iodide staining based flow cytometry (reference value: 33.65%); assay type: functional
MCF7 [14] = assay: Induction of apoptosis in human MCF7 cells assessed as increase in number of wrinkled cells at 1 uM after 48 hrs by Hoechst 33342 staining based confocal microscopic analysis; assay type: functional, cell-based
MCF7 [15] = assay: Induction of apoptosis in human MCF7 cells assessed as DNA fragmentation at 1 uM after 48 hrs by Hoechst 33342 staining based confocal microscopic analysis; assay type: functional, cell-based
NIH3T3 [16] = assay: Cytotoxicity against mouse NIH/3T3 cells assessed as cell death at 1 uM after 24 hrs by propidium iodide/Hoechst 33342 staining based fluorescence microscopic analysis; conditions: nih3t3, 24 h
Calf thymus DNA [17] = assay: Binding affinity to calf thymus DNA assessed as maximum absorption peak at 50 uM by UV-Vis absorption spectrophotometric method; assay type: nucleic-acid assay; conditions: Bos taurus
Calf thymus DNA [18] = assay: Binding affinity to calf thymus DNA at 50 uM by UV-Vis absorption spectrophotometric method; assay type: nucleic-acid assay; conditions: Bos taurus
Calf thymus DNA [19] = assay: Binding affinity to calf thymus DNA assessed as fluorescence quenching at 10 uM by spectrofluorimetric method; assay type: nucleic-acid assay; conditions: Bos taurus
Calf thymus DNA [20] = assay: Binding affinity to calf thymus DNA assessed as DNA winding at 1:1 to 1:2 ratio of DNA to compound by circular dichroism analysis; assay type: nucleic-acid assay; conditions: Bos taurus
Topoisomerase I = biological target: T1, Topoisomerase I (Bos taurus, UniProt Q2HPH0); assay: Inhibition of calf thymus topoisomerase 1-mediated relaxation of supercoiled pBR322 DNA measured after 30 mins by agarose gel electrophoresis method
T1 sequence (Q2HPH0 whole entry): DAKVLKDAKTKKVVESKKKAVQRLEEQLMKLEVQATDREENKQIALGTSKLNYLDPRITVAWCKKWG

MCF7 [21] = assay: Induction of apoptosis in human MCF7 cells assessed as viable cells at 0.5 uM after 48 hrs by Annexin-V-FITC/propidium iodide staining based flow cytometry (reference value: 96.18%); assay type: functional; conditions: MCF7, 48 h, read-out: Activity
MCF7 [22] = assay: Induction of apoptosis in human MCF7 cells assessed as early apoptotic cells at 0.5 uM after 48 hrs by Annexin-V-FITC/propidium iodide staining based flow cytometry (reference value: 0.09%); assay type: functional
MCF7 [23] = assay: Induction of apoptosis in human MCF7 cells assessed as late apoptotic cells at 0.5 uM after 48 hrs by Annexin-V-FITC/propidium iodide staining based flow cytometry (reference value: 0.06%); assay type: functional
MCF7 [24] = assay: Induction of apoptosis in human MCF7 cells assessed as necrotic cells at 0.5 uM after 48 hrs by Annexin-V-FITC/propidium iodide staining based flow cytometry (reference value: 3.67%); assay type: functional
MCF7 [25] = assay: Induction of apoptosis in human MCF7 cells assessed as viable cells at 1 uM after 48 hrs by Annexin-V-FITC/propidium iodide staining based flow cytometry (reference value: 96.18%); assay type: functional; conditions: MCF7, 48 h, read-out: Activity
MCF7 [26] = assay: Induction of apoptosis in human MCF7 cells assessed as early apoptotic cells at 1 uM after 48 hrs by Annexin-V-FITC/propidium iodide staining based flow cytometry (reference value: 0.09%); assay type: functional
MCF7 [27] = assay: Induction of apoptosis in human MCF7 cells assessed as late apoptotic cells at 1 uM after 48 hrs by Annexin-V-FITC/propidium iodide staining based flow cytometry (reference value: 0.06%); assay type: functional
MCF7 [28] = assay: Induction of apoptosis in human MCF7 cells assessed as necrotic cells at 1 uM after 48 hrs by Annexin-V-FITC/propidium iodide staining based flow cytometry (reference value: 3.67%); assay type: functional

CC[n+]1c(-c2ccccc2)c2cc(N)ccc2c2ccc(N)cc21
Activity (Calf thymus DNA [1]): Active

COc1ccc(-c2nc(CNC(=O)/C=C/c3ccc(Cl)c(Cl)c3)cc3c2[nH]c2ccccc23)cc1
IC50 (A549): 18.4 nM
IC50 (MCF7 [2]): 16.4 nM
IC50 (B16): 23 nM
IC50 (HeLa): 21.6 nM
IC50 (NIH3T3 [3]): 37.5 nM

COc1ccc(-c2nc(CNC(=O)/C=C/c3ccc(F)cc3)cc3c2[nH]c2ccccc23)cc1
IC50 (A549): 20.2 nM
IC50 (MCF7 [2]): 18.2 nM
IC50 (B16): 21.9 nM
IC50 (HeLa): 22.8 nM
IC50 (NIH3T3 [3]): 36.9 nM

COc1cc(-c2nc(CNC(=O)/C=C/c3cc(F)cc(F)c3)cc3c2[nH]c2ccccc23)cc(OC)c1OC
IC50 (A549): 21.6 nM
IC50 (MCF7 [2]): 19.6 nM
IC50 (B16): 24.1 nM
IC50 (HeLa): 23.8 nM
IC50 (NIH3T3 [3]): 36.3 nM

COc1cc(/C=C/C(=O)NCc2cc3c([nH]c4ccccc43)c(-c3cc(OC)c(OC)c(OC)c3)n2)cc(OC)c1OC
IC50 (A549): 21.3 nM
IC50 (MCF7 [2]): 16.5 nM
IC50 (B16): 17.2 nM
IC50 (HeLa): 23.5 nM
IC50 (NIH3T3 [3]): 38.9 nM

COc1cc(/C=C/C(=O)NCc2cc3c([nH]c4ccccc43)c(-c3cccc(F)c3)n2)ccc1O
IC50 (A549): 22.4 nM
IC50 (MCF7 [2]): 17.9 nM
IC50 (B16): 19.4 nM
IC50 (HeLa): 23.9 nM
IC50 (NIH3T3 [3]): 36.9 nM

COc1ccc(-c2nc(CNC(=O)/C=C/c3ccc(Cl)cc3)cc3c2[nH]c2ccccc23)cc1
Activity (Calf thymus DNA [4]): 6 nm
Activity (MCF7 [5]): Active
IC50 (A549): 18.9 nM
IC50 (MCF7 [2]): 14.1 nM
IC50 (B16): 16.6 nM
IC50 (HeLa): 21.6 nM
IC50 (NIH3T3 [3]): 38.3 nM
Activity (MCF7 [6]): 5.4%
Activity (MCF7 [7]): 2.97%
Activity (MCF7 [8]): 42.32%
Activity (MCF7 [9]): 42.38%
Activity (MCF7 [10]): 17.6%
Activity (MCF7 [11]): 16.72%
Activity (MCF7 [12]): 33.1%
Activity (MCF7 [13]): 37.42%
Activity (MCF7 [14]): Active
Activity (MCF7 [15]): Active
Activity (NIH3T3 [16]): Non-Toxic
Activity (Calf thymus DNA [17]): 287 to 369 nm
K (Calf thymus DNA [18]): 3 ×10⁵ /M
Activity (Calf thymus DNA [19]): Active
Activity (Calf thymus DNA [20]): Active
Activity (Calf thymus DNA [1]): Active
IC50 (Topoisomerase I): 14 nM
viability at 0.5 µM (MCF7 [21]): 91.2%
Activity (MCF7 [22]): 6.65%
Activity (MCF7 [23]): 0.81%
Activity (MCF7 [24]): 1.29%
viability at 1 µM (MCF7 [25]): 84.8%
Activity (MCF7 [26]): 6.69%
Activity (MCF7 [27]): 2.43%
Activity (MCF7 [28]): 6.04%

COc1cc(-c2nc(CNC(=O)/C=C/c3ccc(Cl)c(Cl)c3)cc3c2[nH]c2ccccc23)cc(OC)c1OC
IC50 (A549): 20.4 nM
IC50 (MCF7 [2]): 17.5 nM
IC50 (B16): 16.9 nM
IC50 (HeLa): 25.9 nM
IC50 (NIH3T3 [3]): 39.2 nM

COc1ccc(-c2nc(CNC(=O)/C=C/c3ccc(O)c(OC)c3)cc3c2[nH]c2ccccc23)cc1
IC50 (A549): 21.2 nM
IC50 (MCF7 [2]): 17.2 nM
IC50 (B16): 19.8 nM
IC50 (HeLa): 24.9 nM
IC50 (NIH3T3 [3]): 39.9 nM

COc1ccc(-c2nc(CNC(=O)/C=C/c3cccc(O)c3)cc3c2[nH]c2ccccc23)cc1
Activity (Calf thymus DNA [4]): inactive
Activity (MCF7 [5]): Active
IC50 (A549): 18.9 nM
IC50 (MCF7 [2]): 13.8 nM
IC50 (B16): 16.3 nM
IC50 (HeLa): 22.3 nM
IC50 (NIH3T3 [3]): 37.2 nM
Activity (MCF7 [6]): 4.61%
Activity (MCF7 [7]): 4.32%
Activity (MCF7 [8]): 46.11%
Activity (MCF7 [9]): 40.12%
Activity (MCF7 [10]): 16.81%
Activity (MCF7 [11]): 16.29%
Activity (MCF7 [12]): 32.46%
Activity (MCF7 [13]): 39.25%
Activity (MCF7 [14]): Active
Activity (MCF7 [15]): Active
Activity (NIH3T3 [16]): Non-Toxic
Activity (Calf thymus DNA [17]): 287 to 369 nm
K (Calf thymus DNA [18]): 1 ×10³ /M
Activity (Calf thymus DNA [19]): Active
Activity (Calf thymus DNA [20]): Active
Activity (Calf thymus DNA [1]): Active
IC50 (Topoisomerase I): 14 nM
viability at 0.5 µM (MCF7 [21]): 81.3%
Activity (MCF7 [22]): 9.75%
Activity (MCF7 [23]): 2.5%
Activity (MCF7 [24]): 6.45%
viability at 1 µM (MCF7 [25]): 77.3%
Activity (MCF7 [26]): 9.46%
Activity (MCF7 [27]): 3.69%
Activity (MCF7 [28]): 9.55%
